In PubChem BioAssay AID1963871 (Molecular Pharmacology Branch, DTP, NCI, 2024):

System: KRAS-mutant PDC multicell tumor spheroid viability
Experiment: Anticancer human tumor 521955-158-R2-J5-PDC patient-derived pancreatic carcinoma cell line growth inhibition [KRAS2]
Settings: for viability, T/C: stronger effect = lower value; active = viability on the fitted dose curve at most 10% of control; inactive = the rest
Summary of the method: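 KRAS-mutant tumor cells were grown as spheroids with HUVEC endothelial cells and human MSCs as stroma. Targeted agents were tested alone and with KRAS pathway inhibitors. Doses started at or near clinical Cmax, or 10 microM, descending half-log.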

[1] = curve of first compound, second compound 0.0316 µM
[2] = curve of first compound, second compound 0.1 µM
[3] = curve of first compound, second compound 0.316 µM
[4] = curve of first compound, second compound 1 µM
[5] = curve of first compound, second compound 3.16 µM
[6] = second compound 0.0316 µM, first compound 0.0316 µM
[7] = second compound 0.0316 µM, first compound 0.1 µM
[8] = second compound 0.1 µM, first compound 0.0316 µM
[9] = second compound 0.1 µM, first compound 0.1 µM
[10] = second compound 0.316 µM, first compound 0.0316 µM
[11] = second compound 0.316 µM, first compound 0.1 µM
[12] = second compound 1 µM, first compound 0.0316 µM
[13] = second compound 1 µM, first compound 0.1 µM
[14] = second compound 3.16 µM, first compound 0.0316 µM
[15] = second compound 3.16 µM, first compound 0.1 µM
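Also: viability read after seven days of drug exposure.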

COC(=O)c1ccc2c(C(=Nc3ccc(N(C)C(=O)CN4CCN(C)CC4)cc3)c3ccccc3)c(O)[nH]c2c1 + C=CC(=O)N1CCN(c2nc(OCC3CCCN3C)nc3c2CCN(c2cccc4cccc(C)c24)C3)CC1CC#N
inactive: viability, T/C [6] 78% | viability, T/C [7] 67.5% | viability, T/C (second compound 0.0316 µM, first compound 0.316 µM) 75.1% | viability, T/C (second compound 0.0316 µM, first compound 1 µM) 55.9% | viability, T/C [8] 64.2% | viability, T/C [9] 69.8% | viability, T/C (second compound 0.1 µM, first compound 0.316 µM) 65.2% | viability, T/C (second compound 0.1 µM, first compound 1 µM) 47.7% | viability, T/C [10] 72.1% | viability, T/C [11] 69.5% | viability, T/C (second compound 0.316 µM, first compound 0.316 µM) 43.7% | viability, T/C (second compound 0.316 µM, first compound 1 µM) 28.6% | viability, T/C [12] 49.4% | viability, T/C [13] 50.6% | viability, T/C (second compound 1 µM, first compound 0.316 µM) 37.3% | viability, T/C (second compound 1 µM, first compound 1 µM) 26.4%
864 nM: IC50 [2]
< 31.6 nM: IC50 [4] | IC50 [5]
280 nM: IC50 [3]
1160 nM: IC50 [1]
active: viability, T/C (second compound 0.0316 µM, first compound 3.16 µM) 9.24% | viability, T/C (second compound 0.0316 µM, first compound 10 µM) 0.33% | viability, T/C (second compound 0.1 µM, first compound 3.16 µM) 8.93% | viability, T/C (second compound 0.1 µM, first compound 10 µM) 0.33% | viability, T/C (second compound 0.316 µM, first compound 3.16 µM) 2.62% | viability, T/C (second compound 0.316 µM, first compound 10 µM) 1.9% | viability, T/C (second compound 1 µM, first compound 3.16 µM) 1.74% | viability, T/C (second compound 1 µM, first compound 10 µM) 0.25% | viability, T/C [14] 1.66% | viability, T/C [15] 0.72% | viability, T/C (second compound 3.16 µM, first compound 0.316 µM) 0.77% | viability, T/C (second compound 3.16 µM, first compound 1 µM) 0.34% | viability, T/C (second compound 3.16 µM, first compound 3.16 µM) 0.55% | viability, T/C (second compound 3.16 µM, first compound 10 µM) 0.44%

CC(C)n1nc(-c2ccc3oc(N)nc3c2)c2c(N)ncnc21 + C=CC(=O)N1CCN(c2nc(OCC3CCCN3C)nc3c2CCN(c2cccc4cccc(C)c24)C3)CC1CC#N
6.8 nM: IC50 [2]
inactive: viability, T/C (second compound 0.0316 µM, first compound 0.000316 µM) 105% | viability, T/C (second compound 0.0316 µM, first compound 0.001 µM) 97.1% | viability, T/C (second compound 0.0316 µM, first compound 0.00316 µM) 68.1% | viability, T/C (second compound 0.0316 µM, first compound 0.01 µM) 49.6% | viability, T/C [6] 36.9% | viability, T/C [7] 25.6% | viability, T/C (second compound 0.1 µM, first compound 0.000316 µM) 94.6% | viability, T/C (second compound 0.1 µM, first compound 0.001 µM) 90.7% | viability, T/C (second compound 0.1 µM, first compound 0.00316 µM) 62.5% | viability, T/C (second compound 0.1 µM, first compound 0.01 µM) 43.6% | viability, T/C [8] 31.5% | viability, T/C [9] 24.3% | viability, T/C (second compound 0.316 µM, first compound 0.000316 µM) 92.6% | viability, T/C (second compound 0.316 µM, first compound 0.001 µM) 90.6% | viability, T/C (second compound 0.316 µM, first compound 0.00316 µM) 59% | viability, T/C (second compound 0.316 µM, first compound 0.01 µM) 44.6% | viability, T/C [10] 27% | viability, T/C [11] 22.7% | viability, T/C (second compound 1 µM, first compound 0.000316 µM) 76.5% | viability, T/C (second compound 1 µM, first compound 0.001 µM) 70.2% | viability, T/C (second compound 1 µM, first compound 0.00316 µM) 49.1% | viability, T/C (second compound 1 µM, first compound 0.01 µM) 33.5% | viability, T/C [12] 23.3% | viability, T/C [13] 18.3% | viability, T/C (second compound 3.16 µM, first compound 0.000316 µM) 33.7% | viability, T/C (second compound 3.16 µM, first compound 0.001 µM) 17.6% | viability, T/C (second compound 3.16 µM, first compound 0.00316 µM) 25.6% | viability, T/C (second compound 3.16 µM, first compound 0.01 µM) 7.26% | viability, T/C [14] 17% | viability, T/C [15] 14.5%
3.33 nM: IC50 [4]
6.39 nM: IC50 [3]
< 0.316 nM: IC50 [5]
9.53 nM: IC50 [1]

COc1cc(OC)cc(N(CCNC(C)C)c2ccc3ncc(-c4cnn(C)c4)nc3c2)c1
6.06 µM [middle of 4 runs]: IC50 (curve of compound)
active: viability, T/C (compound 10 µM) 0.56% [middle of 5 runs]
inactive: viability, T/C (compound 0.0316 µM) 94.3% [middle of 5 runs] | viability, T/C (compound 0.1 µM) 99.1% [middle of 5 runs] | viability, T/C (compound 0.316 µM) 105% [middle of 5 runs] | viability, T/C (compound 1 µM) 123% [middle of 5 runs]
